Key:
[1] = biological target: T1, JAK2 (Homo sapiens, UniProt O60674); assay: Kinobeads assay, JAK2; format: binding; details: mixed Molt4/Ramos cell lysate, dot blot detection
T1 construct: endogenous in cells; host or cells: Mixed Molt4/Ramos lysate (1:2)
How it was run: (§1)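 Lysate from Molt4 and Ramos cells combined 1:2 at 10 mg/mL total protein met test compound and an aminopyrido-pyrimidine affinity matrix for 3 h in the cold. Captured JAK2 and JAK3, after elution, were measured by specific-antibody dot blot on an infrared system; dose-response curves yielded IC50.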

[2] = biological target: T2, JAK3 (Homo sapiens, UniProt P52333); assay: Kinobeads assay, JAK3; format: binding; details: mixed Molt4/Ramos cell lysate, dot blot detection
T2 construct: endogenous in cells; host or cells: Mixed Molt4/Ramos lysate (1:2)
T2 sequence (P52333 1-1124): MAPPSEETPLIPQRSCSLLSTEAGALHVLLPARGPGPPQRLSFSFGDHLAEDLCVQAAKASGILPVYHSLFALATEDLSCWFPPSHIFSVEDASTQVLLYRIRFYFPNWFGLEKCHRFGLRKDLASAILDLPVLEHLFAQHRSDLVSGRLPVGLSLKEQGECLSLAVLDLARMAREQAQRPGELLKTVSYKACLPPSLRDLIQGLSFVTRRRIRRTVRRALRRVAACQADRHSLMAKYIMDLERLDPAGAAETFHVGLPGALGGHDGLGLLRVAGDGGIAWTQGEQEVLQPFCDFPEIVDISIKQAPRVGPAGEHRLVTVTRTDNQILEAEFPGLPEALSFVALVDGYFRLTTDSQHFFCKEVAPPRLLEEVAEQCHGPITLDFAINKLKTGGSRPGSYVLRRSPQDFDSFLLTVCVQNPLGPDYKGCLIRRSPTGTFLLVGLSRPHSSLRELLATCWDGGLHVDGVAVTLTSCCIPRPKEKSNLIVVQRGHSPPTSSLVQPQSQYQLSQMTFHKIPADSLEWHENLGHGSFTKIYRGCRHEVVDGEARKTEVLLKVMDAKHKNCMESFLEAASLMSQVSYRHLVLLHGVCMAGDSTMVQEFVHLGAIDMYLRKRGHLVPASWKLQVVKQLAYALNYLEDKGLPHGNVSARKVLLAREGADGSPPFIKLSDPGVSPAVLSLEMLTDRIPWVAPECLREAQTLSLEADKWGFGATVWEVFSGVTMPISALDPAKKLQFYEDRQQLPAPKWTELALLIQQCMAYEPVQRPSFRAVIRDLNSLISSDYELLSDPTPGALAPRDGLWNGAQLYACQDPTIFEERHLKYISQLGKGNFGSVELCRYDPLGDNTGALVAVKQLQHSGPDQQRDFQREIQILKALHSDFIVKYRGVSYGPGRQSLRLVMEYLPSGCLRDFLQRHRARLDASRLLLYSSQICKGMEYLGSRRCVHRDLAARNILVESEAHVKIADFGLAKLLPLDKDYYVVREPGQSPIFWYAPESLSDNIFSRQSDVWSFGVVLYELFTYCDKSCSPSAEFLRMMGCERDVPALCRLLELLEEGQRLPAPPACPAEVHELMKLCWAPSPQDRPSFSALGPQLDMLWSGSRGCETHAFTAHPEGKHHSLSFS
How it was run: as §1

T1 sequence (O60674 whole entry): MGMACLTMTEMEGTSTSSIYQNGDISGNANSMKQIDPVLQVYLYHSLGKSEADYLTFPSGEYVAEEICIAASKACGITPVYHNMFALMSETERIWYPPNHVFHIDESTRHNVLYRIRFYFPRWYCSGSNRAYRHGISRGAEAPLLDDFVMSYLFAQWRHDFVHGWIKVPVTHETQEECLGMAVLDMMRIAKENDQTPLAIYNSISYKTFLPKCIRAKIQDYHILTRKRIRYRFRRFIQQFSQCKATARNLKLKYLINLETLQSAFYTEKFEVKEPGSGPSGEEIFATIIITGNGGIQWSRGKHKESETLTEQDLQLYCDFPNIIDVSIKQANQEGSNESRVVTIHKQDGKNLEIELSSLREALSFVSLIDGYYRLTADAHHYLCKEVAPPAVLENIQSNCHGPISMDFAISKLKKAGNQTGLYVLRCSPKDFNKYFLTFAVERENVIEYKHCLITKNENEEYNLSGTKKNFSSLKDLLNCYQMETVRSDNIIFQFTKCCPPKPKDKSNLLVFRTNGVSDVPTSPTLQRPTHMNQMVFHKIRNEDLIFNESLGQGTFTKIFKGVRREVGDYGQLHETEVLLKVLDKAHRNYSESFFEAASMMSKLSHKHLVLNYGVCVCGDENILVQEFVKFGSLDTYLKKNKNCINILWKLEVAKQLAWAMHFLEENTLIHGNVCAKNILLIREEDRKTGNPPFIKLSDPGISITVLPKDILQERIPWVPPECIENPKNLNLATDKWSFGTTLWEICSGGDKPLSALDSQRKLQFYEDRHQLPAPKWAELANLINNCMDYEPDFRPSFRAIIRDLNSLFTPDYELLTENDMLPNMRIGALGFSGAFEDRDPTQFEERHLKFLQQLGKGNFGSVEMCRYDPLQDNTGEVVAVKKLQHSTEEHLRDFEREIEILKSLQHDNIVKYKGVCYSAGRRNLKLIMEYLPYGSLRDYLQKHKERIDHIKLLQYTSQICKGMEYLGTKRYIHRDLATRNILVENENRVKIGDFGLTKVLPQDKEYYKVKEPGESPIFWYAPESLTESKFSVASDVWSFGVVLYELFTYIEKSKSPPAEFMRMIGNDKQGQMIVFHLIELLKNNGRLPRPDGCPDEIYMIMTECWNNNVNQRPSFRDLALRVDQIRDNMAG

IC50 [1] [µM]	IC50 [2] [nM]	Compound
0.1 to 1	< 100	CN1CCCC(Cn2cc(Nc3ncc4cnn(Cc5ccccc5F)c4n3)cn2)C1 (stereo not drawn) [Example 192, 1-(2-Fluorobenzyl)-N-(1-((1-methylpiperidin-3-yl)methyl)-1H-pyrazol-4-yl)-1H-pyrazolo[3,4-d]pyrimidin-6-amine]
≥ 10	100 to 1000	CN1CCN(CCCn2cc(Nc3ncc4cnn(Cc5ccccc5F)c4n3)cn2)CC1 [Example 194, 1-(2-Fluorobenzyl)-N-(1-(3-(4-methylpiperazin-1-yl)propyl)-1H-pyrazol-4-yl)-1H-pyrazolo[3,4-d]pyrimidin-6-amine]
0.1 to 1	< 100	OCCn1cc(Nc2ncc3cnn(Cc4c(F)c(F)cc(F)c4F)c3n2)cn1 [Example 196, 2-(4-((1-(2,3,5,6-Tetrafluorobenzyl)-1H-pyrazolo[3,4-d]pyrimidin-6-yl)amino)-1H-pyrazol-1-yl)ethanol]
1 to 10	100 to 1000	Cn1cc(Nc2ncc3cnn(Cc4cccc5ccccc45)c3n2)cn1 [Example 220, N-(1-Methyl-1H-pyrazol-4-yl)-1-(naphthalen-1-ylmethyl)-1H-pyrazolo[3,4-d]pyrimidin-6-amine]
≥ 10	100 to 1000	Cn1nc(Nc2ncc3cnn(Cc4ccccc4F)c3n2)cc1C(=O)O [Example 236, 3-((1-(2-Fluorobenzyl)-1H-pyrazolo[3,4-d]pyrimidin-6-yl)amino)-1-methyl-1H-pyrazole-5-carboxylic acid]
≥ 10	100 to 1000	Cn1cnc(Nc2ncc3cnn(Cc4ccccc4F)c3n2)c1 [Example 237, 1-(2-Fluorobenzyl)-N-(1-methyl-1H-imidazol-4-yl)-1H-pyrazolo[3,4-d]pyrimidin-6-amine]
≥ 10	100 to 1000	OCCn1ccc(Nc2ncc3cnn(Cc4ccccc4F)c3n2)n1 [Example 238, 2-(3-((1-(2-Fluorobenzyl)-1H-pyrazolo[3,4-d]pyrimidin-6-yl)amino)-1H-pyrazol-1-yl)ethanol]
< 0.1	< 100	CNC(=O)c1cc(Nc2ncc3cnn(Cc4ccccc4F)c3n2)c[nH]1 [Example 239, 4-((1-(2-Fluorobenzyl)-1H-pyrazolo[3,4-d]pyrimidin-6-yl)amino)-N-methyl-1H-pyrrole-2-carboxamide]
1 to 10	< 100	OCCn1cnc(Nc2ncc3cnn(Cc4ccccc4F)c3n2)c1 [Example 240, 2-(4-((1-(2-Fluorobenzyl)-1H-pyrazolo[3,4-d]pyrimidin-6-yl)amino)-1H-imidazol-1-yl)ethanol]
1 to 10	< 100	Cn1ccc(Nc2ncc3cnn(Cc4ccccc4F)c3n2)c1 [Example 241, 1-(2-Fluorobenzyl)-N-(1-methyl-1H-pyrrol-3-yl)-1H-pyrazolo[3,4-d]pyrimidin-6-amine]
0.1 to 1	< 100	CNC(=O)c1cc(Nc2ncc3cnn(Cc4ccccc4F)c3n2)cn1C [Example 242, 4-((1-(2-Fluorobenzyl)-1H-pyrazolo[3,4-d]pyrimidin-6-yl)amino)-N,1-dimethyl-1H-pyrrole-2-carboxamide]

Further lines, the compound ahead of its results:

Compound	IC50 [1] [µM]	IC50 [2] [nM]
Cn1cc(Nc2ncc3cnn(Cc4cccc(N5CCCC5)n4)c3n2)cn1 [Example 188, N-(1-Methyl-1H-pyrazol-4-yl)-1-((6-(pyrrolidin-1-yl)pyridin-2-yl)methyl)-1H-pyrazolo[3,4-d]pyrimidin-6-amine]	≥ 10	100 to 1000
Cc1ccc(O)cc1Cn1ncc2cnc(Nc3cnn(C)c3)nc21 [Example 189]	≥ 10	100 to 1000
Cn1cc(Nc2ncc3cnn(Cc4cccc(OC[C@H]5CCCO5)n4)c3n2)cn1 [Example 193, (R)—N-(1-Methyl-1H-pyrazol-4-yl)-1-((6-((tetrahydrofuran-2-yl)methoxy)pyridin-2-yl)methyl)-1H-pyrazolo[3,4-d]pyrimidin-6-amine]	≥ 10	< 100
COCCNC(=O)c1cccc(Cn2ncc3cnc(Nc4cnn(C)c4)nc32)c1 [Example 200]	≥ 10	< 100
Cn1cc(Nc2ncc3cnn(Cc4cccc(-c5ccnc(N)c5)c4)c3n2)cn1 [Example 206, 1-(3-(2-Aminopyridin-4-yl)benzyl)-N-(1-methyl-1H-pyrazol-4-yl)-1H-pyrazolo[3,4-d]pyrimidin-6-amine]	≥ 10	100 to 1000
Cn1cc(Nc2ncc3cnn(Cc4cccc(N5CC[C@@H](O)C5)n4)c3n2)cn1 [Example 208, (R)-1-(6-((6-((1-Methyl-1H-pyrazol-4-yl)amino)-1H-pyrazolo[3,4-d]pyrimidin-1-yl)methyl)pyridin-2-yl)pyrrolidin-3-ol]	≥ 10	< 100
Cn1cc(Nc2ncc3cnn(Cc4cccc(OCC(N)=O)c4)c3n2)cn1 [Example 209]	1 to 10	< 100
Cn1cc(Nc2ncc3cnn(Cc4cccc(C5=CCOCC5)c4)c3n2)cn1 [Example 218, 1-(3-(3,6-Dihydro-2H-pyran-4-yl)benzyl)-N-(1-methyl-1H-pyrazol-4-yl)-1H-pyrazolo[3,4-d]pyrimidin-6-amine]	≥ 10	< 100
Cn1cc(Nc2ncc3cnn(-c4ccc5c(c4)NC(=O)CO5)c3n2)cn1 [Example 219, 6-(6-((1-Methyl-1H-pyrazol-4-yl)amino)-1H-pyrazolo[3,4-d]pyrimidin-1-yl)-2H-benzo[b][1,4]oxazin-3(4H)-one]	0.1 to 1	< 100
Cn1cc(Nc2ncc3cnn(Cc4ccccc4OCCOCc4ccccc4)c3n2)cn1 [Example 221, 1-(2-(2-(Benzyloxy)ethoxy)benzyl)-N-(1-methyl-1H-pyrazol-4-yl)-1H-pyrazolo[3,4-d]pyrimidin-6-amine]	1 to 10	100 to 1000
Cn1cc(Nc2ncc3cnn(Cc4cccc(OCCOCc5ccccc5)c4)c3n2)cn1 [Example 222, 1-(3-(2-(Benzyloxy)ethoxy)benzyl)-N-(1-methyl-1H-pyrazol-4-yl)-1H-pyrazolo[3,4-d]pyrimidin-6-amine]	≥ 10	100 to 1000
Cn1cc(Nc2ncc3cnn(Cc4ccccc4Oc4ccccc4)c3n2)cn1 [Example 224, N-(1-Methyl-1H-pyrazol-4-yl)-1-(2-phenoxybenzyl)-1H-pyrazolo[3,4-d]pyrimidin-6-amine]	≥ 10	100 to 1000
Cn1cc(Nc2ncc3cnn(Cc4cccc(OCCN5CCCC5=O)c4)c3n2)cn1 [Example 225, 1-(2-(3-((6-((1-Methyl-1H-pyrazol-4-yl)amino)-1H-pyrazolo[3,4-d]pyrimidin-1-yl)methyl)phenoxy)ethyl)pyrrolidin-2-one]	≥ 10	< 100
Cn1cc(Nc2ncc3cnn(Cc4cccc5c4OCO5)c3n2)cn1 [Example 228, 1-(Benzo[d][1,3]dioxol-4-ylmethyl)-N-(1-methyl-1H-pyrazol-4-yl)-1H-pyrazolo[3,4-d]pyrimidin-6-amine]	0.1 to 1	< 100
Cn1cc(Nc2ncc3cnn(Cc4cccc5c4OCCO5)c3n2)cn1 [Example 229, 1-((2,3-Dihydrobenzo[b][1,4]dioxin-5-yl)methyl)-N-(1-methyl-1H-pyrazol-4-yl)-1H-pyrazolo[3,4-d]pyrimidin-6-amine]	0.1 to 1	< 100
Cn1cc(Nc2ncc3cnn(Cc4cccc(-c5ccncc5)c4)c3n2)cn1 [Example 230, N-(1-Methyl-1H-pyrazol-4-yl)-1-(3-(pyridin-4-yl)benzyl)-1H-pyrazolo[3,4-d]pyrimidin-6-amine]	≥ 10	< 100

Reference: patent US9242987B2, “Heterocyclyl pyrazolopyrimidine analogues as JAK inhibitors” (Cellzome Limited, priority 2009, dated 2016)
